Measured values published in the supplement of paper PMC13380429.

Tests used:
Settings in all cases: 72 h
Caco-2 [1] = assay: drug sensitivity score (DSS) for viability; higher = more toxic; extreme values may be limits of the assay
HepG2 [2] = assay: as above
Calu-3 [3] = assay: as above
Vero E6 [4] = assay: as above
U2OS [5] = assay: as above
Caco-2 [6] = assay: cell viability relative to DMSO; higher = less toxic
HepG2 [7] = assay: as above
Calu-3 [8] = assay: as above
Vero E6 [9] = assay: as above
U2OS [10] = assay: as above
Caco-2 [11] = assay: relative viability EC50 (midpoint between 100% and the lowest measured viability); higher = less toxic
HepG2 [12] = assay: as above
Calu-3 [13] = assay: as above
Vero E6 [14] = assay: as above
U2OS [15] = assay: as above

SMILES	drug sensitivity score (Caco-2 [1])	drug sensitivity score (HepG2 [2])	drug sensitivity score (Calu-3 [3])	drug sensitivity score (Vero E6 [4])	drug sensitivity score (U2OS [5])	cell viability (Caco-2 [6]; 1 nM) [%]	cell viability (Caco-2 [6]; 10 nM) [%]	cell viability (Caco-2 [6]; 100 nM) [%]	cell viability (Caco-2 [6]; 1000 nM) [%]	cell viability (Caco-2 [6]; 10000 nM) [%]	cell viability (HepG2 [7]; 1 nM) [%]	cell viability (HepG2 [7]; 10 nM) [%]	cell viability (HepG2 [7]; 100 nM) [%]	cell viability (HepG2 [7]; 1000 nM) [%]	cell viability (HepG2 [7]; 10000 nM) [%]	cell viability (Calu-3 [8]; 1 nM) [%]	cell viability (Calu-3 [8]; 10 nM) [%]	cell viability (Calu-3 [8]; 100 nM) [%]	cell viability (Calu-3 [8]; 1000 nM) [%]	cell viability (Calu-3 [8]; 10000 nM) [%]	cell viability (Vero E6 [9]; 1 nM) [%]	cell viability (Vero E6 [9]; 10 nM) [%]	cell viability (Vero E6 [9]; 100 nM) [%]	cell viability (Vero E6 [9]; 1000 nM) [%]	cell viability (Vero E6 [9]; 10000 nM) [%]	cell viability (U2OS [10]; 1 nM) [%]	cell viability (U2OS [10]; 10 nM) [%]	cell viability (U2OS [10]; 100 nM) [%]	cell viability (U2OS [10]; 1000 nM) [%]	cell viability (U2OS [10]; 10000 nM) [%]	relative viability EC50 (Caco-2 [11]) [µM]	relative viability EC50 (HepG2 [12]) [µM]	relative viability EC50 (Calu-3 [13]) [µM]	relative viability EC50 (Vero E6 [14]) [µM]	relative viability EC50 (U2OS [15]) [µM]
CNS(=O)(=O)Cc1ccc2[nH]cc(CCN(C)C)c2c1 [sumatriptan]	0	0	0	0	0	91.4	96.7	104	106	96.2	81.4	106	89.1	101	99.5	101	95.7	93.6	100	94.4	91.6	94.4	87.9	94.7	103	98.1	95.2	97.8	96.2	97.7	> 10	> 10	> 10	> 10	> 10
CNCCCC1(c2ccccc2)OC(C)(C)c2ccccc21 (stereo not given) [talopram]	0	0	0	0	0	91.4	104	103	101	99.2	101	102	89.8	110	106	99.4	102	102	96.3	103	93.7	96.8	90.1	99	104	101	98.7	100	99.4	99	> 10	> 10	> 10	> 10	> 10
NCCS(=O)(=O)O [taurine]	0	0	0	0	0	94.9	99.3	98	95.6	103	110	99.4	101	102	104	100	106	102	97.6	101	94.5	95.3	95.1	89.1	106	94.4	100	98.9	103	101	> 10	> 10	> 10	> 10	> 10
CCCc1nc2c(C)cc(-c3nc4ccccc4n3C)cc2n1Cc1ccc(-c2ccccc2C(=O)O)cc1 [telmisartan]	0	0	0	0	0	89.5	97.3	90.7	90.6	87.5	94.2	95.1	103	99.8	111	92.9	97.9	102	102	108	100	95.9	96	92.9	96.6	97.3	105	97.5	98.9	98.6	> 10	> 10	> 10	> 10	> 10
